This is an account of results in US10894792B2, “Pesticidally active heterocyclic derivatives with sulfur containing substituents” (SYNGENTA PARTICIPATIONS AG, priority 2017, dated 2021).

Structures are written as SMILES.

The subject of one series is Plutella xylostella. Put plainly: Activity against Plutella xylostella (diamond back moth), artificial diet. Type of series: in vivo. To be noted: 120 h, application rate of 200 ppm, L2 larvae on artificial diet, 5 days after infestation, read-out: effect in at least one of the two categories (mortality or growth inhibition). As to the method:
24-well microtiter plates with artificial diet were treated with aqueous test solutions prepared from 10′000 ppm DMSO stock solutions by pipetting. After drying, the plates were infested with L2 larvae (10 to 15 per well). The samples were assessed for mortality and growth inhibition in comparison to untreated samples 5 days after infestation.

Another series concerns Diabrotica Balteata. Put plainly: Activity against Diabrotica balteata (corn root worm). In kind it is in vivo. As to conditions: 96 h, application rate of 200 ppm, sprayed maize sprouts, L2 larvae, 4 days after infestation, read-out: effect in at least one of the two categories (mortality or growth inhibition). As to the method:
Maize sprouts placed onto an agar layer in 24-well microtiter plates were treated with aqueous test solutions prepared from 10′000 ppm DMSO stock solutions by spraying. After drying, the plates were infested with L2 larvae (6 to 10 per well). The samples were assessed for mortality and growth inhibition in comparison to untreated samples 4 days after infestation.

The test system of the next series is Bemisia tabaci. Put plainly: Activity against Bemisia tabaci (cotton white fly). In kind it is in vivo. To be noted: foliar, 144 h, application rate of 200 ppm, sprayed cotton leaf discs, adult white flies, 6 days after incubation. As to the method:
Cotton leaf discs were placed on agar in 24-well microtiter plates and sprayed with aqueous test solutions prepared from 10′000 ppm DMSO stock solutions. After drying the leaf discs were infested with adult white flies. The samples were checked for mortality 6 days after incubation.

A further series relates to Euschistus heros. Put plainly: Activity against Euschistus heros (neotropical brown stink bug). Type of series: in vivo. To be noted: 120 h, application rate of 200 ppm, sprayed soybean leaf, N-2 nymphs, 5 days after infestation, read-out: effect in at least one of the two categories (mortality or growth inhibition). As to the method: Soybean leaf on agar in 24-well microtiter plates were sprayed with aqueous test solutions prepared from 10′000 ppm DMSO stock solutions. After drying the leaf were infested with N-2 nymphs. The samples were assessed for mortality and growth inhibition in comparison to untreated samples 5 days after infestation.

Series [1] concerns Frankliniella occidentalis. Put plainly: Activity against Frankliniella occidentalis (western flower thrips). In kind it is in vivo. To be noted: foliar, 168 h, application rate of 200 ppm, sprayed sunflower leaf discs, population of mixed ages, 7 days after infestation. As to the method: Sunflower leaf discs were placed on agar in 24-well microtiter plates and sprayed with aqueous test solutions prepared from […] stock solutions. After drying the leaf discs were infested with a Frankliniella population of mixed ages. The samples were assessed for mortality 7 days after infestation.

For series [2], the system named is Myzus persicae. Put plainly: Activity against Myzus persicae (green peach aphid), sprayed sunflower leaf discs. In kind it is in vivo. To be noted: foliar, 144 h, application rate of 200 ppm, aphid population of mixed ages, 6 days after infestation. As to the method: Sunflower leaf discs were placed on agar in a 24-well microtiter plate and sprayed with aqueous test solutions prepared from 10′000 ppm DMSO stock solutions. After drying, the leaf discs were infested with an aphid population of mixed ages. The samples were assessed for mortality 6 days after infestation.

The test system of another series is Thrips tabaci. Put plainly: Activity against Thrips tabaci (onion thrips). In kind it is in vivo. To be noted: foliar, 144 h, application rate of 200 ppm, sprayed sunflower leaf discs, thrips population of mixed ages, 6 days after infestation. As to the method: Sunflower leaf discs were placed on agar in 24-well microtiter plates and sprayed with aqueous test solutions prepared from 10′000 ppm DMSO stock solutions. After drying the leaf discs were infested with a thrips population of mixed ages. The samples were assessed for mortality 6 days after infestation.

In series [3] the test system is Myzus persicae. Put plainly: Activity against Myzus persicae (green peach aphid), roots of pea seedlings in test solution. Type of series: in vivo. To be noted: 144 h, test rate of 24 ppm, roots of infested pea seedlings in test solution, 6 days. As to the method:
Roots of pea seedlings infested with an aphid population of mixed ages were placed directly in the aqueous test solutions prepared from 10′000 DMSO stock solutions. The samples were assessed for mortality 6 days after placing seedlings in test solutions.

For the next series, the system named is Spodoptera littoralis. Put plainly: Activity against Spodoptera littoralis (Egyptian cotton leaf worm). Type of series: in vivo. To be noted: foliar, 72 h, application rate of 200 ppm, sprayed cotton leaf discs, L1 larvae, 3 days after infestation, read-out: control (mortality, anti-feeding effect, or growth inhibition). As to the method: Cotton leaf discs were placed onto agar in 24-well microtiter plates and sprayed with aqueous test solutions prepared from 10′000 ppm DMSO stock solutions. After drying the leaf discs were infested with five L1 larvae. The samples were assessed for mortality, anti-feeding effect, and growth inhibition in comparison to untreated samples 3 days after infestation. Control of Spodoptera littoralis by a test sample is given when at least one of the categories mortality, anti-feedant effect, and growth inhibition is higher than the untreated sample.

Broadly, the mortality is the share of the test organisms that died. With `CCS(=O)(=O)c1cc(C(=O)N=S(C)(C)=O)cnc1-c1nc2cc(C(F)(F)F)ncc2n1C` [Compound P1, N-[dimethyl(oxo)-λ^6-sulfanylidene]-5-ethylsulfonyl-6-[3-methyl-6-(trifluoromethyl)imidazo[4,5-c]pyridin-2-yl]pyridine-3-carboxamide], the percent effect (mortality or growth inhibition) at 200 ppm with Plutella xylostella, with Diabrotica Balteata and with Euschistus heros was ≥ 80% throughout. Further, the mortality at 200 ppm (in the series with Bemisia tabaci; in [1]; with Myzus persicae [2]; in the series with Thrips tabaci) was ≥ 80% in each case. Also, the mortality at 24 ppm in the series on Myzus persicae [3] was ≥ 80%.

Consider `CCS(=O)(=O)c1cc(C(=O)N=S(C)(C)=O)cnc1-c1cn2cnc(C(F)(F)F)cc2n1` [Compound P4, N-[dimethyl(oxo)-λ^6-sulfanylidene]-5-ethylsulfonyl-6-[7-(trifluoromethyl)imidazo[1,2-c]pyrimidin-2-yl]pyridine-3-carboxamide], for which the percent effect (mortality or growth inhibition) at 200 ppm in the series with Plutella xylostella, in the series with Diabrotica Balteata and with Euschistus heros was ≥ 80% throughout. The mortality at 200 ppm (with Bemisia tabaci; in [1]; in the series with Myzus persicae [2]) was ≥ 80% in each case. For the same compound, in the series with Spodoptera littoralis, the percent control (mortality, anti-feedant effect or growth inhibition) at 200 ppm was ≥ 80%. For the same compound, in the series with Myzus persicae [3], the mortality at 24 ppm was ≥ 80%.

As to `CCS(=O)(=O)c1cc(C(=O)N=S(C)(=O)CC)cnc1-c1nc2cc(C(F)(F)F)ncc2n1C` (stereo not shown) [Compound P8, N-(ethyl-methyl-oxo-λ^6-sulfanylidene)-5-ethylsulfonyl-6-[3-methyl-6-(trifluoromethyl)imidazo[4,5-c]pyridin-2-yl]pyridine-3-carboxamide], the percent effect (mortality or growth inhibition) at 200 ppm in the series with Plutella xylostella, with Diabrotica Balteata and with Euschistus heros was ≥ 80% throughout. For the same compound, the mortality at 200 ppm (with Bemisia tabaci; in series [1]; with Myzus persicae [2]) was ≥ 80% in each case. In the series with Spodoptera littoralis, the percent control (mortality, anti-feedant effect or growth inhibition) at 200 ppm is ≥ 80%. For the same compound, in the series with Myzus persicae [3], the mortality at 24 ppm was ≥ 80%.

As for `CCS(=O)(=O)c1cc(C(=O)N=S2(=O)CCC2)cnc1-c1cn2cnc(C(F)(F)F)cc2n1` [Compound P13, 5-ethylsulfonyl-N-(1-oxothietan-1-ylidene)-6-[7-(trifluoromethyl)imidazo[1,2-c]pyrimidin-2-yl]pyridine-3-carboxamide], the percent effect (mortality or growth inhibition) at 200 ppm in the series on Plutella xylostella, in the series on Diabrotica Balteata and with Euschistus heros was ≥ 80% each time. In addition, in the series with Myzus persicae [2], the mortality at 200 ppm was ≥ 80%. Further, the percent control (mortality, anti-feedant effect or growth inhibition) at 200 ppm in the series with Spodoptera littoralis is ≥ 80%. In addition, the mortality at 24 ppm with Myzus persicae [3] is ≥ 80%.

In the case of `CCS(=O)(=O)c1cc(C(=O)N=S(C)(C)=O)cnc1-c1nc2cc(C(F)(F)F)cnc2n1C` [Compound P14, N-[dimethyl(oxo)-λ^6-sulfanylidene]-5-ethylsulfonyl-6-[3-methyl-6-(trifluoromethyl)imidazo[4,5-b]pyridin-2-yl]pyridine-3-carboxamide], the percent effect (mortality or growth inhibition) at 200 ppm with Plutella xylostella, in the series with Diabrotica Balteata and in the series with Euschistus heros was ≥ 80% in each case. Also, the mortality at 200 ppm (in the series on Bemisia tabaci; in series [1]; in the series with Myzus persicae [2]) was ≥ 80% throughout. Moreover, the percent control (mortality, anti-feedant effect or growth inhibition) at 200 ppm in the series with Spodoptera littoralis was ≥ 80%. The mortality at 24 ppm with Myzus persicae [3] was ≥ 80%.

With `CCS(=O)(=O)c1cc(C(=O)N=S(C)(=O)CC)cnc1-c1nc2cc(C(F)(F)F)cnc2n1C` (stereo not shown) [Compound P15, N-(ethyl-methyl-oxo-λ^6-sulfanylidene)-5-ethylsulfonyl-6-[3-methyl-6-(trifluoromethyl)imidazo[4,5-b]pyridin-2-yl]pyridine-3-carboxamide], the percent effect (mortality or growth inhibition) at 200 ppm with Plutella xylostella, in the series on Diabrotica Balteata and in the series with Euschistus heros was ≥ 80% each time. Further, the mortality at 200 ppm (in the series with Bemisia tabaci; in series [1]; in the series with Myzus persicae [2]) was ≥ 80% each time. Moreover, the percent control (mortality, anti-feedant effect or growth inhibition) at 200 ppm with Spodoptera littoralis is ≥ 80%. Also, the mortality at 24 ppm with Myzus persicae [3] is ≥ 80%.

For the compound `CCS(=O)(=O)c1cc(C(=O)N=S2(=O)CCC2)cnc1-c1nc2cc(C(F)(F)F)cnc2n1C` [Compound P16, 5-ethylsulfonyl-6-[3-methyl-6-(trifluoromethyl)imidazo[4,5-b]pyridin-2-yl]-N-(1-oxothietan-1-ylidene)pyridine-3-carboxamide], the percent effect (mortality or growth inhibition) at 200 ppm in the series on Plutella xylostella, with Diabrotica Balteata and in the series with Euschistus heros was ≥ 80% each time. Moreover, the mortality at 200 ppm in the series on Bemisia tabaci and in the series on Myzus persicae [2] was ≥ 80% throughout. The percent control (mortality, anti-feedant effect or growth inhibition) at 200 ppm in the series on Spodoptera littoralis was ≥ 80%. In addition, in the series on Myzus persicae [3], the mortality at 24 ppm is ≥ 80%.

In the case of `CCS(=O)(=O)c1cc(C(=O)N=S(=O)(CC)CC)cnc1-c1cn2cnc(C(F)(F)F)cc2n1` [Compound P21, N-[diethyl(oxo)-λ^6-sulfanylidene]-5-ethylsulfonyl-6-[7-(trifluoromethyl)imidazo[1,2-c]pyrimidin-2-yl]pyridine-3-carboxamide], the percent effect (mortality or growth inhibition) at 200 ppm with Plutella xylostella and with Euschistus heros was ≥ 80% each time. The percent control (mortality, anti-feedant effect or growth inhibition) at 200 ppm in the series on Spodoptera littoralis was ≥ 80%.

Take `CCS(=O)(=O)c1cc(C(=O)N=S(C)(C)=O)cnc1-n1cc2cnc(C(F)(F)F)cc2n1` [Compound P24, N-[dimethyl(oxo)-λ^6-sulfanylidene]-5-ethylsulfonyl-6-[6-(trifluoromethyl)pyrazolo[4,3-c]pyridin-2-yl]pyridine-3-carboxamide]: the percent effect (mortality or growth inhibition) at 200 ppm in the series with Plutella xylostella and in the series with Diabrotica Balteata was ≥ 80% throughout. The percent control (mortality, anti-feedant effect or growth inhibition) at 200 ppm with Spodoptera littoralis is ≥ 80%.

The term melting point denotes the temperature, or range, at which the solid turns liquid. In turn, `CCS(=O)(=O)c1cc(C(=O)N=S(C)(=O)CC)cnc1-n1cc2cnc(C(F)(F)F)cc2n1` (stereo not shown) [Compound P25, N-(ethyl-methyl-oxo-λ^6-sulfanylidene)-5-ethylsulfonyl-6-[6-(trifluoromethyl)pyrazolo[4,3-c]pyridin-2-yl]pyridine-3-carboxamide] had a melting point of 216 to 219 °C.

As to `CCS(=O)(=O)c1cc(C(=O)N=S(=O)(CC)CC)cnc1-n1cc2cnc(C(F)(F)F)cc2n1` [Compound P26, N-[diethyl(oxo)-λ^6-sulfanylidene]-5-ethylsulfonyl-6-[6-(trifluoromethyl)pyrazolo[4,3-c]pyridin-2-yl]pyridine-3-carboxamide], the melting point is 185 to 189 °C.
